The source made the active and inactive calls. How the calls were made is not given here.

The series has as its system CCRIS mutagenicity, Ames/micronucleus/aberration tests. The series is described as follows: CCRIS mutagenicity studies.
The mark [1] stands for this setting: Test System: AMES SALMONELLA TYPHIMURIUM, Strain/Indicator: TA98, Metabolic Activation: NONE, Method: PREINCUBATION
[2] abbreviates: Test System: AMES SALMONELLA TYPHIMURIUM, Strain/Indicator: TA100, Metabolic Activation: NONE, Method: PREINCUBATION
[3] abbreviates: Test System: AMES SALMONELLA TYPHIMURIUM, Strain/Indicator: TA1535, Metabolic Activation: NONE, Method: PREINCUBATION

As to `C#CCNC(=NCCSCc1nc[nH]c1C)NC#N`, the mutagenic call reads like this: under setting [1], “inactive; negative”; (Test System: AMES SALMONELLA TYPHIMURIUM, Strain/Indicator: TA98, Metabolic Activation: RAT, LIVER, S-9, SODIUM PHENOBARBITAL AND BETA-NAPHTHOFLAVONE, Method: PREINCUBATION) “inactive; negative”; under setting [2], “inactive; negative”; (Test System: AMES SALMONELLA TYPHIMURIUM, Strain/Indicator: TA100, Metabolic Activation: RAT, LIVER, S-9, SODIUM PHENOBARBITAL AND BETA-NAPHTHOFLAVONE, Method: PREINCUBATION) “inactive; negative”; under setting [3], “inactive; negative”; (Test System: AMES SALMONELLA TYPHIMURIUM, Strain/Indicator: TA1535, Metabolic Activation: RAT, LIVER, S-9, SODIUM PHENOBARBITAL AND BETA-NAPHTHOFLAVONE, Method: PREINCUBATION) “inactive; negative”. The mutagenic call was “inactive; negative” (Test System: AMES SALMONELLA TYPHIMURIUM, Strain/Indicator: TA1537, Metabolic Activation: NONE, Method: PREINCUBATION); “inactive; negative” (Test System: AMES SALMONELLA TYPHIMURIUM, Strain/Indicator: TA1537, Metabolic Activation: RAT, LIVER, S-9, SODIUM PHENOBARBITAL AND BETA-NAPHTHOFLAVONE, Method: PREINCUBATION); “inactive; negative” (Test System: AMES SALMONELLA TYPHIMURIUM, Strain/Indicator: TA1538, Metabolic Activation: NONE, Method: PREINCUBATION); “inactive; negative” (Test System: AMES SALMONELLA TYPHIMURIUM, Strain/Indicator: TA1538, Metabolic Activation: RAT, LIVER, S-9, SODIUM PHENOBARBITAL AND BETA-NAPHTHOFLAVONE, Method: PREINCUBATION); “inactive; negative” (Test System: CHINESE HAMSTER V-79, Strain/Indicator: V-79/6-THIOGUANINE, Metabolic Activation: NONE, Method: STANDARD PLATE); “inactive; negative” (Test System: CHINESE HAMSTER V-79, Strain/Indicator: V-79/6-THIOGUANINE, Metabolic Activation: RAT, LIVER, S-9, SODIUM PHENOBARBITAL AND BETA-NAPHTHOFLAVONE, Method: STANDARD PLATE). Besides, the mutagenic call was “inactive; negative” (Test System: CHINESE HAMSTER V-79, Strain/Indicator: V-79/OUABAIN, Metabolic Activation: NONE, Method: STANDARD PLATE); “inactive; negative” (Test System: CHINESE HAMSTER V-79, Strain/Indicator: V-79/OUABAIN, Metabolic Activation: RAT, LIVER, S-9, SODIUM PHENOBARBITAL AND BETA-NAPHTHOFLAVONE, Method: STANDARD PLATE); “inactive; negative” (Test System: E. COLI, Strain/Indicator: WP2 (PKM101), Metabolic Activation: NONE, Method: PREINCUBATION); “inactive; negative” (Test System: E. COLI, Strain/Indicator: WP2 (PKM101), Metabolic Activation: RAT, LIVER, S-9, SODIUM PHENOBARBITAL AND BETA-NAPHTHOFLAVONE, Method: PREINCUBATION); “inactive; negative” (Test System: E. COLI, Strain/Indicator: WP2, Metabolic Activation: NONE, Method: PREINCUBATION); “inactive; negative” (Test System: E. COLI, Strain/Indicator: WP2, Metabolic Activation: RAT, LIVER, S-9, SODIUM PHENOBARBITAL AND BETA-NAPHTHOFLAVONE, Method: PREINCUBATION). Also, the mutagenic call (Test System: E. COLI, Strain/Indicator: WP2 UVRA (PKM101), Metabolic Activation: NONE, Method: PREINCUBATION) was “inactive; negative”; the mutagenic call (Test System: E. COLI, Strain/Indicator: WP2 UVRA (PKM101), Metabolic Activation: RAT, LIVER, S-9, SODIUM PHENOBARBITAL AND BETA-NAPHTHOFLAVONE, Method: PREINCUBATION) was “inactive; negative”; the mutagenic call (Test System: E. COLI, Strain/Indicator: WP2 UVRA, Metabolic Activation: NONE, Method: PREINCUBATION) is “inactive; negative”; the mutagenic call (Test System: E. COLI, Strain/Indicator: WP2 UVRA, Metabolic Activation: RAT, LIVER, S-9, SODIUM PHENOBARBITAL AND BETA-NAPHTHOFLAVONE, Method: PREINCUBATION) is “inactive; negative”.

With `C/C=C(\Cl)C=O`, the mutagenic call runs as follows: under setting [2], “active; positive”; (Test System: AMES SALMONELLA TYPHIMURIUM, Strain/Indicator: TA100, Metabolic Activation: NONE, Method: PREINCUBATION, LIQUID INCUBATION) “active; positive”.

As to `O=C1c2ccccc2C(=O)C1(O)O`, the mutagenic call reads like this: (Test System: AMES SALMONELLA TYPHIMURIUM, Strain/Indicator: TA97, Metabolic Activation: HAMSTER, LIVER, S-9, AROCLOR 1254 (10%), Method: PREINCUBATION) “inactive; negative”; (Test System: AMES SALMONELLA TYPHIMURIUM, Strain/Indicator: TA97, Metabolic Activation: HAMSTER, LIVER, S-9, AROCLOR 1254 (30%), Method: PREINCUBATION) “inactive; negative”; (Test System: AMES SALMONELLA TYPHIMURIUM, Strain/Indicator: TA97, Metabolic Activation: NONE, Method: PREINCUBATION) “inactive; negative”; (Test System: AMES SALMONELLA TYPHIMURIUM, Strain/Indicator: TA97, Metabolic Activation: RAT, LIVER, S-9, AROCLOR 1254 (10%), Method: PREINCUBATION) “inactive; negative”; (Test System: AMES SALMONELLA TYPHIMURIUM, Strain/Indicator: TA97, Metabolic Activation: RAT, LIVER, S-9, AROCLOR 1254 (30%), Method: PREINCUBATION) “inactive; negative”; (Test System: AMES SALMONELLA TYPHIMURIUM, Strain/Indicator: TA98, Metabolic Activation: HAMSTER, LIVER, S-9, AROCLOR 1254 (10%), Method: PREINCUBATION) “inactive; negative”. The mutagenic call runs as follows: (Test System: AMES SALMONELLA TYPHIMURIUM, Strain/Indicator: TA98, Metabolic Activation: HAMSTER, LIVER, S-9, AROCLOR 1254 (30%), Method: PREINCUBATION) “inactive; negative”; under setting [1], “inactive; negative”; (Test System: AMES SALMONELLA TYPHIMURIUM, Strain/Indicator: TA98, Metabolic Activation: RAT, LIVER, S-9, AROCLOR 1254 (10%), Method: PREINCUBATION) “inactive; negative”; (Test System: AMES SALMONELLA TYPHIMURIUM, Strain/Indicator: TA98, Metabolic Activation: RAT, LIVER, S-9, AROCLOR 1254 (30%), Method: PREINCUBATION) “inactive; negative”; (Test System: AMES SALMONELLA TYPHIMURIUM, Strain/Indicator: TA100, Metabolic Activation: HAMSTER, LIVER, S-9, AROCLOR 1254 (10%), Method: PREINCUBATION) “inactive; negative”; (Test System: AMES SALMONELLA TYPHIMURIUM, Strain/Indicator: TA100, Metabolic Activation: HAMSTER, LIVER, S-9, AROCLOR 1254 (30%), Method: PREINCUBATION) “inactive; negative”. Further, the mutagenic call was “inactive; negative” under setting [2]; “inactive; negative” (Test System: AMES SALMONELLA TYPHIMURIUM, Strain/Indicator: TA100, Metabolic Activation: RAT, LIVER, S-9, AROCLOR 1254 (5%), Method: PREINCUBATION); “inactive; negative” (Test System: AMES SALMONELLA TYPHIMURIUM, Strain/Indicator: TA100, Metabolic Activation: RAT, LIVER, S-9, AROCLOR 1254 (10%), Method: PREINCUBATION); “inactive; negative” (Test System: AMES SALMONELLA TYPHIMURIUM, Strain/Indicator: TA100, Metabolic Activation: RAT, LIVER, S-9, AROCLOR 1254 (30%), Method: PREINCUBATION); “inactive; negative” (Test System: AMES SALMONELLA TYPHIMURIUM, Strain/Indicator: TA1535, Metabolic Activation: HAMSTER, LIVER, S-9, AROCLOR 1254 (10%), Method: PREINCUBATION); “inactive; negative” (Test System: AMES SALMONELLA TYPHIMURIUM, Strain/Indicator: TA1535, Metabolic Activation: HAMSTER, LIVER, S-9, AROCLOR 1254 (30%), Method: PREINCUBATION). For the same molecule, the mutagenic call under setting [3] was “inactive; negative”; the mutagenic call (Test System: AMES SALMONELLA TYPHIMURIUM, Strain/Indicator: TA1535, Metabolic Activation: RAT, LIVER, S-9, AROCLOR 1254 (10%), Method: PREINCUBATION) is “inactive; negative”; the mutagenic call (Test System: AMES SALMONELLA TYPHIMURIUM, Strain/Indicator: TA1535, Metabolic Activation: RAT, LIVER, S-9, AROCLOR 1254 (30%), Method: PREINCUBATION) was “inactive; negative”; the mutagenic call (Test System: AMES SALMONELLA TYPHIMURIUM, Strain/Indicator: TA1537, Metabolic Activation: HAMSTER, LIVER, S-9, AROCLOR 1254 (10%), Method: PREINCUBATION) was “inactive; negative”; the mutagenic call (Test System: AMES SALMONELLA TYPHIMURIUM, Strain/Indicator: TA1537, Metabolic Activation: HAMSTER, LIVER, S-9, AROCLOR 1254 (30%), Method: PREINCUBATION) is “inactive; negative”; the mutagenic call (Test System: AMES SALMONELLA TYPHIMURIUM, Strain/Indicator: TA1537, Metabolic Activation: RAT, LIVER, S-9, AROCLOR 1254 (10%), Method: PREINCUBATION) was “inactive; negative”. For the same molecule, the mutagenic call (Test System: AMES SALMONELLA TYPHIMURIUM, Strain/Indicator: TA1537, Metabolic Activation: RAT, LIVER, S-9, AROCLOR 1254 (30%), Method: PREINCUBATION) is “inactive; negative”.

Values taken from PubChem BioAssay AID1259407 (Chemical Carcinogenesis Research Information System (CCRIS), 2018).
